The record followed here is patent US10208089B2, “Modulation of complement activity” (priority 2014, dated 2019).

Starred links: 1 amine or outer side, 2 acyl side, 3 side chain; linkers in the order of their positions; H or OH if unused. Positions of bridges follow the written chain, without caps; N, C: chain ends. Non-standard residues stand in square brackets, D forms with d. Residues, ends and D or L forms follow the SMILES beside them. Ala(1H-tetrazol-5-yl) = N[C@@H](Cc1nnn[nH]1)C(=O)O; Trp(7-aza) = N[C@@H](Cc1c[nH]c2ncccc12)C(=O)O; mXylylene = c1cc(C[*:1])cc(C[*:2])c1; pXylylene = c1cc(C[*:2])ccc1C[*:1]; Chg = N[C@H](C(=O)O)C1CCCCC1; Phg = N[C@H](C(=O)O)c1ccccc1; Tle = CC(C)(C)[C@H](N)C(=O)O; NMeS = CN[C@@H](CO)C(=O)O; hCys = N[C@@H](CCS)C(=O)O; NMeA = CN[C@@H](C)C(=O)O; Nle = CCCC[C@H](N)C(=O)O; Nva = CCC[C@H](N)C(=O)O; Sar = CNCC(=O)O Where only a bound is given, the exact number is not on record here.

The target in this test is C5 (Homo sapiens, UniProt P01031). Description: Human hemolysis assay (RBC lysis assay using complete human sera). It is filed as cell-based. The arrangement: with complete human sera (Complement Technology, Tyler Tex.) and polypeptides; tissue Complement Technology, Tyler Tex; host or cells: complete human serum.
C5, sequence (P01031 19-1676): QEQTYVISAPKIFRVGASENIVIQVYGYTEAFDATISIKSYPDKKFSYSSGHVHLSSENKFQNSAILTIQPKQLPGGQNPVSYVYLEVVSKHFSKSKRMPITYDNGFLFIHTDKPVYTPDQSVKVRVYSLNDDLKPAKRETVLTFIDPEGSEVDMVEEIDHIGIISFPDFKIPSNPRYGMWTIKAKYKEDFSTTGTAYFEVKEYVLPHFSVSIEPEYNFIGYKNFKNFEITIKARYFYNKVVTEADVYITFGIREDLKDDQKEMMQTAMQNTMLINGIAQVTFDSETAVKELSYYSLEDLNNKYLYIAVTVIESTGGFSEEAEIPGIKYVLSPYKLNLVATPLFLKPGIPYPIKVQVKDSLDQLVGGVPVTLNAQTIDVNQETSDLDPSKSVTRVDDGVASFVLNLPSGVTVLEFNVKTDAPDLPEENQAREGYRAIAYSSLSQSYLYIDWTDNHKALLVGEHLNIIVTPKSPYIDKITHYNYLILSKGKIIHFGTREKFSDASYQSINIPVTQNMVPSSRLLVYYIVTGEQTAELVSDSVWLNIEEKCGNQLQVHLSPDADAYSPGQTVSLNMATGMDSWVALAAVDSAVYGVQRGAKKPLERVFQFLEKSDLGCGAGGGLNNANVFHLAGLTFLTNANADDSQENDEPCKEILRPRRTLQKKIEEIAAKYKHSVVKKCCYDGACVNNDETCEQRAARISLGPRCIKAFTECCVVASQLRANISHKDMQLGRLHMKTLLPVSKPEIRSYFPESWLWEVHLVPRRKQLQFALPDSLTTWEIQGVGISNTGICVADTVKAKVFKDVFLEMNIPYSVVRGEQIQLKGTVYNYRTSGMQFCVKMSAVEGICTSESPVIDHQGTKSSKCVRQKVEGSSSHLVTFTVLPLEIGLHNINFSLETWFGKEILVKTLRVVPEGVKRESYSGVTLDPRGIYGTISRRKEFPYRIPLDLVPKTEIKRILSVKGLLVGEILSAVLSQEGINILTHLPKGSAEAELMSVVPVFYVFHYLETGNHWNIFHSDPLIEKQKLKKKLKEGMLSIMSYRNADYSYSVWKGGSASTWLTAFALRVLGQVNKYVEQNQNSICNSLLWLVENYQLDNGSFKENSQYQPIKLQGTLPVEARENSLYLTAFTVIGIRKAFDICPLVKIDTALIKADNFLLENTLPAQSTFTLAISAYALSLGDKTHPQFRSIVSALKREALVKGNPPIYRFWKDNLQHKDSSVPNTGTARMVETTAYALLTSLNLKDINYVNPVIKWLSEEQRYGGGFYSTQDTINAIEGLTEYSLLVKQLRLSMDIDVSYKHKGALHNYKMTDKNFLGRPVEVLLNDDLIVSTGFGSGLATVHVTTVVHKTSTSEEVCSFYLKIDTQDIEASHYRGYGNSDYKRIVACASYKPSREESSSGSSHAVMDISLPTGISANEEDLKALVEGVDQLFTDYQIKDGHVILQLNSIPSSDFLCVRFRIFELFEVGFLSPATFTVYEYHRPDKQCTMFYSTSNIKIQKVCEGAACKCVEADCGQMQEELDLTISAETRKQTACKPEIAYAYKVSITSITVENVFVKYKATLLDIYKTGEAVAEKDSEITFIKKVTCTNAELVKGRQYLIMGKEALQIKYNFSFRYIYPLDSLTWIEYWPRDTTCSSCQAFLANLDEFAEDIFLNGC
[1] abbreviates: inhibition of lysis of antibody-sensitized sheep erythrocytes, complete human sera.
The mark [2] stands for this setting: 7-azatryptophan variant polypeptides of R3002, inhibition of red blood cell lysis.

For `CCCC[C@H](NC(C)=O)C(=O)N[C@H]1CSCc2cccc(c2)CSC[C@@H](C(=O)N[C@@H](CCC)C(N)=O)NC(=O)[C@H](Cc2c[nH]cn2)NC(=O)[C@H](CO)N(C)C(=O)[C@H](Cc2ccc(O)cc2)NC(=O)[C@H](CCC(=O)O)NC(=O)[C@H](Cc2c[nH]c3ncccc23)NC(=O)[C@H]([C@@H](C)O)NC(=O)[C@H](c2ccccc2)NC1=O` [Compound R3112, [mXyly1(2,10)]Ac-Nle-C-Phg-T-azaTrp-E-Y-(N-Me)S-H-C-Nvl-NH2] (Ac-[Nle]C[Phg]T[Trp(7-aza)]EY[NMeS]HC[Nva]-NH2; linker 2-10 via mXylylene), under setting [1], the half-maximal inhibitory concentration (IC50) is more than 5 µM.

On to `CCC[C@H](NC(=O)[C@@H]1CSCc2cccc(c2)CSC[C@H](NC(=O)[C@@H](NC(C)=O)C(C)C)C(=O)N[C@@H](c2ccccc2)C(=O)N[C@@H]([C@@H](C)O)C(=O)N[C@@H](Cc2c[nH]c3ncccc23)C(=O)N[C@@H](CCC(=O)O)C(=O)N[C@@H](Cc2ccc(O)cc2)C(=O)N(C)[C@@H](CO)C(=O)N[C@@H](C)C(=O)N1)C(N)=O` [Compound R3083, [mXylyl(2,10)]Ac-V-C-Phg-T-azaTrp-E-Y-(N-Me)S-A-C-Nvl-NH2] (Ac-VC[Phg]T[Trp(7-aza)]EY[NMeS]AC[Nva]-NH2; linker 2-10 via mXylylene), for which the 50% inhibitory concentration (IC50) under setting [1] is more than 25 µM.

Take `CCC[C@H](NC(=O)[C@@H](NC(=O)[C@@H]1CCCN1C(=O)[C@H](Cc1ccc(O)cc1)NC(=O)[C@H](CCC(=O)O)NC(=O)[C@H](Cc1c[nH]c2ncccc12)NC(=O)[C@H](Cc1ccc(O)cc1)NC(=O)[C@@H](NC(=O)[C@H](Cc1nnn[nH]1)NC(=O)[C@@H]1CSCc2cccc(c2)CSC[C@H](NC(C)=O)C(=O)N[C@@H](C(C)C)C(=O)N[C@@H](CCC(=O)O)C(=O)N[C@@H](CCCNC(=N)N)C(=O)N[C@@H](Cc2ccccc2)C(=O)N1)C(C)(C)C)C1CCCCC1)C(N)=O` [Compound R3168, [mXylyl(1,6)]Ac-C-V-E-R-F-C-Asp(T)-Tbg-Y-azaTrp-E-Y-P-Chg-Nvl-NH2] (Ac-CVERFC[Ala(1H-tetrazol-5-yl)][Tle]Y[Trp(7-aza)]EYP[Chg][Nva]-NH2; linker 1-6 via mXylylene): the IC50 under setting [1] turned out to be 0.0075 µM.

With `CCC[C@H](NC(=O)[C@@H](NC(=O)[C@@H]1CCCN1C(=O)[C@H](Cc1ccc(O)cc1)NC(=O)[C@H](CCC(=O)O)NC(=O)[C@H](Cc1c[nH]c2ccc(OC)cc12)NC(=O)[C@H](Cc1ccc(O)cc1)NC(=O)[C@@H](NC(=O)[C@H](CC(N)=O)NC(=O)[C@H](CCC(=O)O)NC(=O)[C@H](Cc1ccc(O)cc1)NC(C)=O)C(C)(C)C)c1ccccc1)C(N)=O` [Compound R3094, Ac-Y-E-N-Tbg-Y-(5-MeO)W-E-Y-P-Phg-Nvl-NH2], the IC50 by setting is: under setting [2], more than 100 µM; under setting [1], more than 100 µM.

Turning to `CCC[C@H](NC(=O)[C@@H](NC(=O)[C@@H]1CCCN1C(=O)[C@H](Cc1ccc(O)cc1)NC(=O)[C@H](CCC(=O)O)NC(=O)[C@@H](Cc1c[nH]c2ccccc12)NC(=O)[C@H](Cc1ccc(O)cc1)NC(=O)[C@@H](NC(=O)[C@H](CC(N)=O)NC(=O)[C@H](CCC(=O)O)NC(=O)[C@H](Cc1ccc(O)cc1)NC(C)=O)C(C)(C)C)c1ccccc1)C(N)=O` [Compound R3118, Ac-Y-E-N-Tbg-Y-(D-Trp)-E-Y-P-Phg-Nvl-NH2], the IC50 under setting [2] was more than 100 µM and the IC50 under setting [1] is more than 100 µM.

On to `CCC[C@H](NC(=O)[C@@H]1CSCc2cccc(c2)CSC[C@H](NC(=O)[C@H](CCC)NC(C)=O)C(=O)N[C@@H](c2ccccc2)C(=O)N[C@@H]([C@@H](C)O)C(=O)N[C@@H](Cc2c[nH]c3ccccc23)C(=O)N[C@@H](CCC(=O)O)C(=O)N[C@@H](Cc2ccc(O)cc2)C(=O)N(C)[C@@H](CO)C(=O)N[C@@H](C)C(=O)N1)C(N)=O` [Compound R3091, [mXylyl(2,10)]Ac-Nvl-C-Phg-T-W-E-Y-(N-Me)S-A-C-Nvl-NH2] (Ac-[Nva]C[Phg]TWEY[NMeS]AC[Nva]-NH2; linker 2-10 via mXylylene), for which, under setting [1], the IC50 was determined as 0.483 µM.

For `CCC[C@H](NC(C)=O)C(=O)N[C@H]1CSCc2cccc(c2)CSC[C@@H](C(=O)N[C@@H](CCC(=O)O)C(=O)N[C@@H](Cc2ccc(O)cc2)C(=O)N2CCC[C@H]2C(=O)N[C@H](C(=O)N[C@H](C(N)=O)C(C)(C)C)c2ccccc2)NC(=O)[C@H](CCC(=O)O)NC(=O)[C@H](C(C)(C)C)NC(=O)[C@H](CC(N)=O)NC(=O)[C@H](CC(N)=O)NC(=O)[C@H](Cc2ccc(O)cc2)NC1=O` [Compound R3129, [mXylyl(2,8)]Ac-Nvl-C-Y-N-N-Tbg-E-C-E-Y-P-Phg-Tbg-NH2] (Ac-[Nva]CYNN[Tle]ECEYP[Phg][Tle]-NH2; linker 2-8 via mXylylene), the IC50 was more than 100 µM under setting [2] and more than 100 µM under setting [1].

In the case of `CCC[C@H](NC(=O)[C@@H]1CSCc2ccc(cc2)CSC[C@H](NC(=O)[C@H](CCC)NC(C)=O)C(=O)N[C@@H](c2ccccc2)C(=O)N[C@@H]([C@@H](C)O)C(=O)N[C@@H](Cc2c[nH]c3ncccc23)C(=O)N[C@@H](CCC(=O)O)C(=O)N[C@@H](Cc2ccc(O)cc2)C(=O)N2CCC[C@H]2C(=O)N[C@@H](Cc2c[nH]cn2)C(=O)N1)C(N)=O` [Compound R3065, [pXy1y1(2,10)]Ac-Nvl-C-PhE-T-azaTrp-E-Y-P-H-C-Nvl-NH2] (Ac-[Nva]C[Phg]T[Trp(7-aza)]EYPHC[Nva]-NH2; linker 2-10 via pXylylene), the half-inhibitory concentration (IC50) under setting [1] came out at 0.394 µM.

With `CCC[C@H](NC(=O)[C@@H](NC(=O)[C@@H]1CCCN1C(=O)[C@H](Cc1ccc(O)cc1)NC(=O)[C@H](CCC(=O)O)NC(=O)[C@@H](Cc1c[nH]c2ccccc12)NC(=O)[C@H](Cc1ccc(O)cc1)NC(=O)[C@H](CC(N)=O)NC(=O)[C@H](CCC(=O)O)NC(=O)[C@H](Cc1ccc(O)cc1)NC(C)=O)c1ccccc1)C(N)=O` [Compound R3119, Ac-Y-E-N-Y-(D-Trp)-E-Y-P-Phg-Nvl-NH2] (Ac-YENY[dW]EYP[Phg][Nva]-NH2), the IC50 is more than 100 µM under setting [2] and more than 100 µM under setting [1].

`CCC[C@H](NC(=O)[C@@H]1CSCc2ccc(cc2)CSCC[C@H](NC(=O)[C@H](CCC)NC(C)=O)C(=O)N[C@@H](c2ccccc2)C(=O)N[C@@H]([C@@H](C)O)C(=O)N[C@@H](Cc2c[nH]c3ncccc23)C(=O)N[C@@H](CCC(=O)O)C(=O)N[C@@H](Cc2ccc(O)cc2)C(=O)N(C)[C@@H](CO)C(=O)N[C@@H](Cc2c[nH]cn2)C(=O)N1)C(N)=O` [Compound R3104, [pXylyl(2,10)]Ac-Nvl-homoC-Phg-T-azaTrp-E-Y-(N-Me)S-H-C-Nvl-NH2] (Ac-[Nva][hCys][Phg]T[Trp(7-aza)]EY[NMeS]HC[Nva]-NH2; linker 2-10 via pXylylene): the half-inhibitory concentration (IC50) under setting [1] was more than 2 µM.

For the compound `CCC[C@H](N)C(=O)N[C@H]1CSCc2cccc(c2)CSC[C@@H](C(=O)N[C@H](C(=O)N(C)[C@@H](C)C(N)=O)c2ccccc2)NC(=O)[C@H](CC(C)C)NC(=O)CN(C)C(=O)[C@H](CC(N)=O)NC(=O)[C@H](c2ccccc2)NC(=O)[C@H](C(C)(C)C)NC(=O)[C@H](Cc2ccc(O)cc2)NC1=O` [Compound R3052, [mXylyl(2,9)]Nvl-C-Y-Tbg-Phg-N-(N-Me)G-L-C-Phg-(N-Me)A-NH2] (H-[Nva]CY[Tle][Phg]N[Sar]LC[Phg][NMeA]-NH2; linker 2-9 via mXylylene), under setting [1], the IC50 is more than 100 µM.

Regarding `CCC[C@H](NC(=O)[C@@H](NC(=O)[C@@H]1CCCN1C(=O)[C@H](Cc1ccc(O)cc1)NC(=O)[C@H](CCC(=O)O)NC(=O)[C@@H]1CSCc2cccc(c2)CSC[C@H](NC(=O)[C@H](CCC)NC(C)=O)C(=O)N[C@@H](Cc2ccc(O)cc2)C(=O)N[C@@H](CCC(=O)O)C(=O)N[C@@H](CC(N)=O)C(=O)N[C@@H](C(C)(C)C)C(=O)N[C@@H](Cc2ccc(O)cc2)C(=O)N1)c1ccccc1)C(N)=O` [Compound R3017, [mXylyl(2,8)]Ac-Nvl-C-Y-E-N-Tbg-Y-C-E-Y-P-Phg-Nvl-NH2] (Ac-[Nva]CYEN[Tle]YCEYP[Phg][Nva]-NH2; linker 2-8 via mXylylene), the IC50 was more than 100 µM under setting [2] and more than 100 µM under setting [1].

Turning to `CCC[C@H](NC(=O)[C@@H]1CSCc2cccc(c2)CSC[C@H](NC(=O)[C@@H](NC(=O)[C@@H](NC(=O)[C@H](CCC)NC(C)=O)[C@@H](C)O)c2ccccc2)C(=O)N[C@@H](Cc2c[nH]c3ncccc23)C(=O)N[C@@H](CCC(=O)O)C(=O)N[C@@H](Cc2ccc(O)cc2)C(=O)N(C)[C@@H](CO)C(=O)N[C@@H](C)C(=O)N1)C(N)=O` [Compound R3111, [mXylyl(4,10)]Ac-Nvl-T-Phg-C-azaTrp-E-Y-(N-Me)S-A-C-Nvl-NH2] (Ac-[Nva]T[Phg]C[Trp(7-aza)]EY[NMeS]AC[Nva]-NH2; linker 4-10 via mXylylene), the IC50 under setting [1] was more than 5 µM.

In the case of `CC(=O)N[C@H]1CSCc2cccc(c2)CSC[C@@H](C(=O)N[C@@H](CC(=O)O)C(=O)N[C@H](C(=O)N[C@@H](Cc2ccc(O)cc2)C(=O)N[C@@H](Cc2c[nH]c3ccccc23)C(=O)N[C@@H](CCC(=O)O)C(=O)N[C@@H](Cc2ccccc2)C(N)=O)C(C)C)NC(=O)[C@H](Cc2ccccc2)NC(=O)[C@H](CCCNC(=N)N)NC(=O)[C@H](CCC(=O)O)NC(=O)[C@H](C(C)C)NC1=O` [Compound R3048, [mXylyl(1,6)]Ac-C-V-E-R-F-C-D-V-Y-W-E-F-NH2] (Ac-CVERFCDVYWEF-NH2; linker 1-6 via mXylylene), under setting [1], the IC50 was found to be 0.0193 µM. Besides, the “ability to inhibit red blood cell lysis compared with the parent polypeptide (in words)” value (variants of R3021, R3002 or R3008) is “increased the ability”.

As for `CCC[C@H](NC(=O)[C@@H]1CSCc2cccc(c2)CSC[C@H](NC(=O)[C@H](CCC)NC(C)=O)C(=O)N[C@@H](c2ccccc2)C(=O)N[C@@H]([C@@H](C)O)C(=O)N[C@@H](Cc2c[nH]c3ncccc23)C(=O)N[C@@H](CCC(=O)O)C(=O)N[C@@H](Cc2ccc(OC)cc2)C(=O)N(C)[C@@H](CO)C(=O)N[C@@H](Cc2c[nH]cn2)C(=O)N1)C(N)=O` [Compound R3074, [mXylyl(2,10)]Ac-Nvl-C-Phg-T-azaTrp-E-Tyr(OMe)-(N-Me)S-H-C-Nvl-NH2] (Ac-[Nva]C[Phg]T[Trp(7-aza)]EY(Me)[NMeS]HC[Nva]-NH2; linker 2-10 via mXylylene), the IC50 under setting [1] came to 0.308 µM.
